For test [1], the target named is Beta Secretase enzyme (BACE) (Homo sapiens (Human), UniProt P56817). Nature of the test: In vitro enzymatic BACE FRET assay. In kind it is biochemical. Conditions: read-out: BACE 1 FRET assay IC50. The essentials: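 Reactions ran in 0.05 M acetate pH 4.2 with 10% DMSO final and 100 uM genapol. They were started with 50 nM peptide FRET substrate (fluorophore and quencher flanking the BACE cleavage site) and incubated one hour. Tris addition raised the pH to neutral to stop the reaction before fluorescence reading.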
Beta Secretase enzyme (BACE), sequence (P56817 46-501): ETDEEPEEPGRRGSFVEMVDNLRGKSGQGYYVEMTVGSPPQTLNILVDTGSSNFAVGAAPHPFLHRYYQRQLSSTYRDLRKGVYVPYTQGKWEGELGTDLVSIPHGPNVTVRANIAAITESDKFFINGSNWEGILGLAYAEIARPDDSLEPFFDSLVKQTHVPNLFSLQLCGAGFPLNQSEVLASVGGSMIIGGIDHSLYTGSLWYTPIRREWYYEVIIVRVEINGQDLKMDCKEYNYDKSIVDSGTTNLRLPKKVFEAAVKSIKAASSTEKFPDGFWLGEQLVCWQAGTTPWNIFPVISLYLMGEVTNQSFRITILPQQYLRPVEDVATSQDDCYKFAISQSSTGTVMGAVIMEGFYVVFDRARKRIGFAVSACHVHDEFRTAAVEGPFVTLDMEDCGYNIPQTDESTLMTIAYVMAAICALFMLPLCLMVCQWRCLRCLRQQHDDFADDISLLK

Test [2] has as its system Aβ40 in conditioned medium of cells stably expressing Amyloid Precursor Protein (APP). Nature of the test: In vitro BACE cell-based assay (Aβ40 sandwich ELISA). The settings on record: Homo sapiens. The essentials:
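Secreted Aβ40 was quantified by sandwich ELISA (pAb40 capture, biotinylated 6E10 detection, Europium time-resolved fluorescence). IC50 derived from percent inhibition versus concentration.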

Test [3] concerns the target Cathepsin D (Cat D) (Homo sapiens (Human), UniProt P07339). Nature of the test: In vitro enzymatic Cathepsin D (Cat D) FRET assay. In kind it is biochemical. Conditions: read-out: CatD IC50. The essentials:
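CHO-expressed recombinant Cat D cleaves a fluorophore/quencher FRET peptide (20 nM) in 0.05 M citrate pH 3.5, 5 mM CHAPS, 10% DMSO final, over 1 h. Tris addition neutralizes pH to stop the reaction; fluorescence read at excitation 500 nm, emission 580 nm.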

[4] abbreviates: HEK293, read-out: HEK cell assay IC50.
Setting [5] is: HEK293, average IC50, HEK cells, read-out: HEK cell assay IC50.
The mark [6] stands for this setting: average IC50, BACE enzyme assay.
Setting [7] is: HEK293, average IC50, HEK cell assay, read-out: HEK cell assay IC50.
Setting [8] is: average IC50, cathepsin D enzyme assay.

In general, IC50 refers to the concentration at which inhibition is half-maximal.

Structures are written as SMILES. Read-outs that look alike come from different tables or passages of the source.

Cathepsin D (Cat D), sequence (P07339 65-412, species assumed): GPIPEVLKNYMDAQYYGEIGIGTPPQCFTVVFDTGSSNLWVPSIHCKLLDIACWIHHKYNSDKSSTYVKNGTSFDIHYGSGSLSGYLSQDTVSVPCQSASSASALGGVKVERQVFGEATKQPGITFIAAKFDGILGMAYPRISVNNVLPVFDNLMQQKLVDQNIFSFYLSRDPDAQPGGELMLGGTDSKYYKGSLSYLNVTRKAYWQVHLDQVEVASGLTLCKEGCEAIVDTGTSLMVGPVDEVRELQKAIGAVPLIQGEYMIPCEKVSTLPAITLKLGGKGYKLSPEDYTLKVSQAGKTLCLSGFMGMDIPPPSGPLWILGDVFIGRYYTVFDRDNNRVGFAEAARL

Turning to `NC1=N[C@](CF)(c2cc(NC(=O)c3ccc(Cl)cn3)cnc2F)C[C@@H](C(F)(F)F)O1` [Example 139, N-(5-((4S,6S)-2-amino-4-(fluoromethyl)-6-(trifluoromethyl)-5,6-dihydro-4H-1,3-oxazin-4-yl)-6-fluoropyridin-3-yl)-5-chloropicolinamide], the IC50 in test [1] (average IC50) was 0.0965 µM; in test [2] (setting [4]) it was 0.418 µM; in test [3] (average IC50) it was > 400 µM.
For the compound `Cc1cc(C#N)cnc1C(=O)Nc1cnc(F)c([C@]2(CF)C[C@@H](C(F)(F)F)OC(N)=N2)c1` [Example 140, N-(5-((4S,6S)-2-amino-4-(fluoromethyl)-6-(trifluoromethyl)-5,6-dihydro-4H-1,3-oxazin-4-yl)-6-fluoropyridin-3-yl)-5-cyano-3-methylpicolinamide], the IC50 in test [1] (average IC50) was 0.113 µM; in test [2] (setting [5]), 0.338 µM; in test [3] (average IC50) it was > 400 µM.
With `N#Cc1ccc(C(=O)Nc2cnc(F)c([C@]3(CF)C[C@@H](C(F)(F)F)OC(N)=N3)c2)nc1` [Example 141, N-(5-((4S,6S)-2-amino-4-(fluoromethyl)-6-(trifluoromethyl)-5,6-dihydro-4H-1,3-oxazin-4-yl)-6-fluoropyridin-3-yl)-5-cyanopicolinamide], the IC50 turned out to be 0.171 µM in test [1] (average IC50), 0.639 µM in test [2] (setting [5]) and 1790 µM in test [3] (average IC50).
Taken in the same sequence, the figures for `COc1ccc(C(=O)Nc2cnc(F)c([C@]3(CF)C[C@@H](C(F)(F)F)OC(N)=N3)c2)nc1` [Example 142, N-(5-((4S,6S)-2-amino-4-(fluoromethyl)-6-(trifluoromethyl)-5,6-dihydro-4H-1,3-oxazin-4-yl)-6-fluoropyridin-3-yl)-5-methoxypicolinamide] were 0.114 µM, 0.587 µM and 5520 µM.
The matching figures for `NC1=N[C@](CF)(c2cccc(NC(=O)c3ccc(Cl)cn3)c2)C[C@@H](C(F)(F)F)O1` [Example 143, N-(3-((4S,6S)-2-amino-4-(fluoromethyl)-6-(trifluoromethyl)-5,6-dihydro-4H-1,3-oxazin-4-yl)phenyl)-5-chloropicolinamide]: 0.117 µM, 0.154 µM and 2370 µM.
Taken in the same sequence, the figures for `N#Cc1ccc(C(=O)Nc2cccc([C@]3(CF)C[C@@H](C(F)(F)F)OC(N)=N3)c2)nc1` [Example 144, N-(3-((4S,6S)-2-amino-4-(fluoromethyl)-6-(trifluoromethyl)-5,6-dihydro-4H-1,3-oxazin-4-yl)phenyl)-5-cyanopicolinamide] were 0.0892 µM, 0.067 µM and 665 µM.
With `NC1=N[C@](CF)(c2cccc(Nc3nccc4cc(Cl)cnc34)c2)C[C@@H](C(F)(F)F)O1` [Example 146, (4S,6S)-4-(3-((3-chloro-1,7-naphthyridin-8-yl)amino)phenyl)-4-(fluoromethyl)-6-(trifluoromethyl)-5,6-dihydro-4H-1,3-oxazin-2-amine], the IC50 in test [1] (average IC50) turned out to be 0.067 µM; in test [2] (setting [5]), 0.119 µM; in test [3] (average IC50), 733 µM.
On to `COc1ncc(NC(=O)c2ccc(Cl)cn2)cc1[C@]1(C)C[C@@H](C(F)(F)F)OC(N)=N1` [Example 147, N-(5-((4S,6S)-2-amino-4-methyl-6-(trifluoromethyl)-5,6-dihydro-4H-1,3-oxazin-4-yl)-6-methoxypyridin-3-yl)-5-chloropicolinamide], for which the IC50 in test [1] (average IC50) turned out to be 0.249 µM; in test [2] (setting [5]) it was 0.119 µM; in test [3] (average IC50), 1420 µM.
For the compound `Cn1cc(NC(=O)c2ccc(Cl)cn2)cc([C@]2(C)C[C@@H](C(F)(F)F)OC(N)=N2)c1=O` [Example 148, N-(5-((4S,6S)-2-amino-4-methyl-6-(trifluoromethyl)-5,6-dihydro-4H-1,3-oxazin-4-yl)-1-methyl-6-oxo-1,6-dihydropyridin-3-yl)-5-chloropicolinamide], the IC50 in test [1] (average IC50) is 0.366 µM; in test [2] (setting [4]), 0.0127 µM; in test [3] (average IC50), > 400 µM.
For `Cn1cc(NC(=O)c2ccc(C#N)cn2)cc([C@]2(C)C[C@@H](C(F)(F)F)OC(N)=N2)c1=O` [Example 149, N-(5-((4S,6S)-2-amino-4-methyl-6-(trifluoromethyl)-5,6-dihydro-4H-1,3-oxazin-4-yl)-1-methyl-6-oxo-1,6-dihydropyridin-3-yl)-5-cyanopicolinamide], the IC50 was 0.239 µM in test [1] (average IC50), 0.021 µM in test [2] (setting [5]) and > 400 µM in test [3] (average IC50).
Taken in the same sequence, the figures for `Cc1cc(C#N)cnc1C(=O)Nc1cc([C@]2(C)C[C@@H](C(F)(F)F)OC(N)=N2)c(=O)n(C)c1` [Example 150, N-(5-((4S,6S)-2-amino-4-methyl-6-(trifluoromethyl)-5,6-dihydro-4H-1,3-oxazin-4-yl)-1-methyl-6-oxo-1,6-dihydropyridin-3-yl)-5-cyano-3-methylpicolinamide] were 0.121 µM, 0.0101 µM and > 400 µM.
Turning to `NC1=N[C@](CF)(c2cc(NC(=O)c3ccc(Cl)cn3)cc(F)c2F)C[C@@H](C(F)(F)F)O1` [Example 152, N-(3-((4S,6S)-2-amino-4-(fluoromethyl)-6-(trifluoromethyl)-5,6-dihydro-4H-1,3-oxazin-4-yl)-4,5-difluorophenyl)-5-chloropicolinamide], the results for the IC50 in test [1] (setting [6]), in test [2] (setting [7]) and in test [3] (setting [8]) were 0.026 µM, 0.087 µM and 2750 µM, respectively.
Taken in the same sequence, the figures for `COc1cnc(C(=O)Nc2cc(F)c(F)c([C@]3(CF)C[C@@H](C(F)(F)F)OC(N)=N3)c2)cn1` [Example 153, N-(3-((4S,6S)-2-amino-4-(fluoromethyl)-6-(trifluoromethyl)-5,6-dihydro-4H-1,3-oxazin-4-yl)-4,5-difluorophenyl)-5-methoxypyrazine-2-carboxamide] were 0.05 µM, 0.126 µM and 3360 µM.
The matching figures for `COc1ccc(C(=O)Nc2cc(F)c(F)c([C@]3(CF)C[C@@H](C(F)(F)F)OC(N)=N3)c2)nc1` [Example 156, N-(3-((4S,6S)-2-amino-4-(fluoromethyl)-6-(trifluoromethyl)-5,6-dihydro-4H-1,3-oxazin-4-yl)-4,5-difluorophenyl)-5-methoxypicolinamide]: 0.062 µM, 0.123 µM and > 400 µM.
The matching figures for `C#CCOc1ccc(C(=O)Nc2cc(F)c(F)c([C@]3(CF)C[C@@H](C(F)(F)F)OC(N)=N3)c2)nc1` [Example 159, N-(3-((4S,6S)-2-amino-4-(fluoromethyl)-6-(trifluoromethyl)-5,6-dihydro-4H-1,3-oxazin-4-yl)-4,5-difluorophenyl)-5-(prop-2-yn-1-yloxy)picolinamide]: 0.013 µM, 0.093 µM and > 400 µM.
With `NC1=N[C@](CF)(c2cc(Nc3nccc4cc(Cl)cnc34)cc(F)c2F)C[C@@H](C(F)(F)F)O1` [Example 161, (4S,6S)-4-(5-((3-chloro-1,7-naphthyridin-8-yl)amino)-2,3-difluorophenyl)-4-(fluoromethyl)-6-(trifluoromethyl)-5,6-dihydro-4H-1,3-oxazin-2-amine], the IC50 in test [1] (setting [6]) is 0.023 µM; in test [2] (setting [7]), 0.535 µM; in test [3] (setting [8]) it was > 400 µM.
Take `COc1cc(C#N)cnc1C(=O)Nc1cc(F)c(F)c([C@]2(C)C[C@@H](C(F)(F)F)OC(N)=N2)c1` [Example 168, N-(3-((4S,6S)-2-amino-4-methyl-6-(trifluoromethyl)-5,6-dihydro-4H-1,3-oxazin-4-yl)-4,5-difluorophenyl)-5-cyano-3-methoxypicolinamide]: the IC50 in test [1] (setting [6]) was 0.051 µM; in test [2] (setting [4]) it was 0.0061 µM; in test [3] (setting [8]) it was > 400 µM.
Consider `Cc1cc(Cl)cnc1C(=O)Nc1cc(F)c(F)c([C@]2(C)C[C@@H](C(F)(F)F)OC(N)=N2)c1` [Example 170, N-(3-((4S,6S)-2-amino-4-methyl-6-(trifluoromethyl)-5,6-dihydro-4H-1,3-oxazin-4-yl)-4,5-difluorophenyl)-5-chloro-3-methylpicolinamide], for which the IC50 was found to be 0.0095 µM in test [1] (setting [6]), 0.014 µM in test [2] (setting [7]) and 733 µM in test [3] (setting [8]).
As for `C[C@@]1(c2cc(NC(=O)c3ncc(Cl)cc3Cl)cc(F)c2F)C[C@@H](C(F)(F)F)OC(N)=N1` [Example 172, N-(3-((4S,6S)-2-amino-4-methyl-6-(trifluoromethyl)-5,6-dihydro-4H-1,3-oxazin-4-yl)-4,5-difluorophenyl)-3,5-dichloropicolinamide], the IC50 in test [1] (setting [6]) was 0.019 µM; in test [2] (setting [7]), 0.019 µM; in test [3] (setting [8]) it was 394 µM.
As for `COc1cnc(C(=O)Nc2cc(F)c(F)c([C@]3(C)C[C@@H](C(F)(F)F)OC(N)=N3)c2)c(C)n1` [Example 173, N-(3-((4S,6S)-2-amino-4-methyl-6-(trifluoromethyl)-5,6-dihydro-4H-1,3-oxazin-4-yl)-4,5-difluorophenyl)-5-methoxy-3-methylpyrazine-2-carboxamide], the IC50 was 0.118 µM in test [1] (average); 0.085 µM in test [2] (HEK293, HEK cells, average, read-out: HEK cell assay IC50); > 400 µM in test [3] (average).

These data come from patent US9296734B2 (AMGEN INC., priority 2013, dated 2016).
